US20250228239A1, “MOLECULES HAVING PESTICIDAL UTILITY, AND INTERMEDIATES, COMPOSITIONS, AND PROCESSES, RELATED THERETO” (priority 2024, published 2025)

Experiments:
[1] = test system: Beet Armyworm (Spodoptera exigua, LAPHEG); experiment: Bioassays on Beet Armyworm (BAW), 128-well diet tray assay; type: in vivo; settings: Spodoptera exigua; Beet Armyworm, Table ABC / ABC-DP rating; read-out: BAW rating
How it was run: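 Diet-overlay assay: 50 μg/cm^2 compound applied in 90:10 acetone-water to artificial diet, allowed to dry, then infested with 1–5 L2 larvae/well; 8 wells/compound; covered, vented; 25° C., 14:10 L:D, 5–7 d; % mortality per well, averaged.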

[2] = test system: Cabbage Looper (Trichoplusia ni, TRIPNI); experiment: Bioassays on Cabbage Looper (CL), 128-well diet tray assay; type: in vivo; settings: Trichoplusia ni; Cabbage Looper, Table ABC / ABC-DP rating; read-out: CL rating
How it was run: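 Each of eight wells receives artificial diet treated at 50 μg/cm^2 with the test molecule, then one to five second-instar larvae. Incubation runs five to seven days at 25° C with a 14:10 light-dark cycle under vented covers. Mortality is scored per well as a percentage and averaged.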

SMILES	pest or weed control at 50 µg/cm2 [1] [%]	pest or weed control at 50 µg/cm2 [2] [%]
CC(CC(F)(F)F)C(=O)Nc1c(F)ccc(NC(=O)c2cc(NC(=O)[C@H]3[C@H](c4ccc(F)c(C(F)(F)F)c4)C3(Cl)Cl)ccc2Cl)c1F (stereo partly drawn) [F1835, 2-Chloro-5-((1R,3R)-2,2-dichloro-3-(4-fluoro-3-(trifluoromethyl)phenyl)cyclopropane-1-carboxamido)-N-(2,4-difluoro-3-(4,4,4-trifluoro-2-methylbutanamido)phenyl)benzamide]	50 to 100	50 to 100
O=C(Nc1ccc(F)c(NC(=O)C2CCOC2C(F)(F)F)c1F)c1cc(NC(=O)[C@H]2[C@H](c3ccc(F)c(C(F)(F)F)c3)C2(Cl)Cl)ccc1Cl (stereo partly drawn) [F1837, N-(3-(2-Chloro-5-((1R,3R)-2,2-dichloro-3-(4-fluoro-3-(trifluoromethyl)phenyl)cyclopropane-1-carboxamido)benzamido)-2,6-difluorophenyl)-2-(trifluoromethyl)tetrahydrofuran-3-carboxamide]	50 to 100	50 to 100
CCCNc1c(F)ccc(NC(=O)c2cc(NC(=O)[C@H]3[C@H](c4ccc(F)c(C(F)(F)F)c4)C3(Cl)Cl)ccc2Cl)c1F [F1838, 2-Chloro-5-((1R,3R)-2,2-dichloro-3-(4-fluoro-3-(trifluoromethyl)phenyl)cyclopropane-1-carboxamido)-N-(2,4-difluoro-3-(propylamino)phenyl)benzamide]	50 to 100	50 to 100
O=C(Nc1ccc(F)c(NC(=O)C(F)(F)C(F)C(F)(F)F)c1F)c1cc(NC(=O)[C@H]2[C@H](c3ccc(F)c(C(F)(F)F)c3)C2(Cl)Cl)ccc1Cl (stereo partly drawn) [F1839, 2-Chloro-5-((1R,3R)-2,2-dichloro-3-(4-fluoro-3-(trifluoromethyl)phenyl)cyclopropane-1-carboxamido)-N-(2,4-difluoro-3-(2,2,3,4,4,4-hexafluorobutanamido)phenyl)benzamide]	50 to 100	50 to 100
O=C(CC(=O)C(F)(F)F)Nc1c(F)ccc(NC(=O)c2cc(NC(=O)[C@H]3[C@H](c4ccc(F)c(C(F)(F)F)c4)C3(Cl)Cl)ccc2Cl)c1F [F1840, 2-Chloro-5-((1R,3R)-2,2-dichloro-3-(4-fluoro-3-(trifluoromethyl)phenyl)cyclopropane-1-carboxamido)-N-(2,4-difluoro-3-(4,4,4-trifluoro-3-oxobutanamido)phenyl)benzamide]	50 to 100	50 to 100
CC(C)CC(=O)Nc1c(F)ccc(NC(=O)c2cc(NC(=O)[C@H]3[C@H](c4ccc(F)c(C(F)(F)F)c4)C3(Cl)Cl)ccc2Cl)c1F [F1845, 2-Chloro-5-((1R,3R)-2,2-dichloro-3-(4-fluoro-3-(trifluoromethyl)phenyl)cyclopropane-1-carboxamido)-N-(2,4-difluoro-3-(3-methylbutanamido)phenyl)benzamide]	50 to 100	50 to 100
O=C(COCC(F)(F)F)Nc1c(F)ccc(NC(=O)c2cc(NC(=O)[C@H]3[C@H](c4ccc(F)c(C(F)(F)F)c4)C3(Cl)Cl)ccc2Cl)c1F [F1846, 2-Chloro-5-((1R,3R)-2,2-dichloro-3-(4-fluoro-3-(trifluoromethyl)phenyl)cyclopropane-1-carboxamido)-N-(2,4-difluoro-3-(2-(2,2,2-trifluoroethoxy)acetamido)phenyl)benzamide]	50 to 100	50 to 100
O=C(Nc1ccc(F)c(NC(=O)C2(C(F)(F)F)CCC2)c1F)c1cc(NC(=O)[C@H]2[C@H](c3ccc(F)c(C(F)(F)F)c3)C2(Cl)Cl)ccc1Cl [F1849, 2-Chloro-5-((1R,3R)-2,2-dichloro-3-(4-fluoro-3-(trifluoromethyl)phenyl)cyclopropane-1-carboxamido)-N-(2,4-difluoro-3-(1-(trifluoromethyl)cyclobutane-1-carboxamido)phenyl)benzamide]	50 to 100	50 to 100
CC(=O)C1(C(=O)Nc2c(F)ccc(NC(=O)c3cc(NC(=O)[C@H]4[C@H](c5ccc(F)c(C(F)(F)F)c5)C4(Cl)Cl)ccc3Cl)c2F)CC1 [F1850, N-(3-(1-Acetylcyclopropane-1-carboxamido)-2,4-difluorophenyl)-2-chloro-5-((1R,3R)-2,2-dichloro-3-(4-fluoro-3-(trifluoromethyl)phenyl)cyclopropane-1-carboxamido)benzamide]	50 to 100	50 to 100
O=C(CCBr)Nc1c(F)ccc(NC(=O)c2cc(NC(=O)[C@H]3[C@H](c4ccc(F)c(C(F)(F)F)c4)C3(Cl)Cl)ccc2Cl)c1F [F1851, N-(3-(3-Bromopropanamido)-2,4-difluorophenyl)-2-chloro-5-((1R,3R)-2,2-dichloro-3-(4-fluoro-3-(trifluoromethyl)phenyl)cyclopropane-1-carboxamido)benzamide]	50 to 100	50 to 100
C#CCCC(=O)Nc1c(F)ccc(NC(=O)c2cc(NC(=O)[C@H]3[C@H](c4ccc(F)c(C(F)(F)F)c4)C3(Cl)Cl)ccc2Cl)c1F [F1855]	50 to 100	50 to 100
CC(F)(F)CCC(=O)Nc1c(F)ccc(NC(=O)c2cc(NC(=O)[C@H]3[C@H](c4ccc(Cl)c(Cl)c4)C3(Cl)Cl)ccc2Cl)c1F [F1860, 2-Chloro-5-((1R,3R)-2,2-dichloro-3-(3,4-dichlorophenyl)cyclopropane-1-carboxamido)-N-(3-(4,4-difluoropentanamido)-2,4-difluorophenyl)benzamide]	50 to 100	50 to 100
O=C(CCC(F)(F)C(F)(F)F)Nc1c(F)ccc(NC(=O)c2cc(NC(=O)[C@H]3[C@H](c4ccc(Cl)c(Cl)c4)C3(Cl)Cl)ccc2Cl)c1F [F1861, 2-Chloro-5-((1R,3R)-2,2-dichloro-3-(3,4-dichlorophenyl)cyclopropane-1-carboxamido)-N-(2,4-difluoro-3-(4,4,5,5,5-pentafluoropentanamido)phenyl) benzamide]	50 to 100	50 to 100
CC(CC(F)(F)F)C(=O)Nc1c(F)ccc(NC(=O)c2cc(NC(=O)[C@H]3[C@H](c4ccc(Cl)c(Cl)c4)C3(Cl)Cl)ccc2Cl)c1F (stereo partly drawn) [F1862, 2-Chloro-5-((1R,3R)-2,2-dichloro-3-(3,4-dichlorophenyl)cyclopropane-1-carboxamido)-N-(2,4-difluoro-3-(4,4,4-trifluoro-2-methylbutanamido)phenyl) benzamide]	50 to 100	50 to 100
O=C(COCC(F)(F)F)Nc1c(F)ccc(NC(=O)c2cc(NC(=O)[C@H]3[C@H](c4ccc(Cl)c(Cl)c4)C3(Cl)Cl)ccc2Cl)c1F [F1863, 2-Chloro-5-((1R,3R)-2,2-dichloro-3-(3,4-dichlorophenyl)cyclopropane-1-carboxamido)-N-(2,4-difluoro-3-(2-(2,2,2-trifluoroethoxy)acetamido)phenyl) benzamide]	50 to 100	50 to 100
CC(F)(F)CCC(=O)Nc1c(F)ccc(NC(=O)c2cc(NC(=O)[C@H]3[C@H](c4ccc(F)c(Cl)c4)C3(Cl)Cl)ccc2Cl)c1F [F1864, 2-Chloro-5-((1R,3R)-2,2-dichloro-3-(3-chloro-4-fluorophenyl)cyclopropane-1-carboxamido)-N-(3-(4,4-difluoropentanamido)-2,4-difluorophenyl)benzamide]	50 to 100	50 to 100
